# Measured values: PMC10455244, “Alpha-Mangostin: A Potent Inhibitor of TRPV3 and Pro-Inflammatory Cytokine Secretion in Keratinocytes” (International Journal of Molecular Sciences, 2023)
# Assays:
# TRPV3 = conditions: read-out: IC50 (µM), channel inhibited TRPV3; cited from earlier work
# TRPV1 = conditions: read-out: IC50 (µM), channel inhibited TRPV1; cited from earlier work
# TRPV2 = system: TRPV2; parameters: method as in PMID 28333079; conditions: read-out: IC50 (µM), channel inhibited TRPV2; cited from earlier work
# TRPV3 (WT) = experiment: in vitro; type: cell-based, human; conditions: human
# IL-8 = experiment: ELISA, carvacrol-induced IL-8 release in NHEK; type: cell-based, human; conditions: 300 µM carvacrol alone, 24 h
# From the text: (§1) Constitutive activation of TRPV3 due to continuous stimulation or the presence of Olmsted mutations causes noticeable skin inflammation due to the increased secretion of pro-inflammatory cytokines from the keratinocytes. Besides, in atopic dermatitis (AD), cytokine release from keratinocytes contributes to the inflammatory environment, which drives many characteristic AD symptoms. Therefore, we determined the effect of TRPV3 activation on cytokine release instead of TRPV3 expression and evaluated whether alpha-mangostin suppressed TRPV3-mediated cytokine secretion in normal human keratinocytes. The levels of secreted cytokines (interleukin (IL)-6, IL-8, and tumor necrosis factor-alpha (TNF-α)) were measured using enzyme-linked Immunosorbent assay (ELISA) kits due to their high sensitivity and quantitation ability. The cells were induced with 300 µM carvacrol, with or without 1 µM alpha-mangostin, and 10 µM 74a.
# (§2) Figure 5 Alpha-mangostin (α-MG) inhibited carvacrol-induced cytokine release in NHEK cells and rescued carvacrol-induced cell death. (A) Alpha-mangostin inhibited the carvacrol-induced release of IL-8 and IL-6 in NHEK. Cells were induced by 300 µM carvacrol with or without either 1 µM alpha-mangostin or 10 µM 74a for 24 h before the ELISA assay. (B) Alpha-mangostin reduced cell death caused by carvacrol in human keratinocytes. […]
# IL-6 = experiment: ELISA, carvacrol-induced IL-6 release in NHEK; type: cell-based, human; conditions: 300 µM carvacrol alone, 24 h, not significant
# From the text: as §1, §2
# TNF-α = experiment: ELISA, TNF-α release in NHEK; type: cell-based, human; conditions: 300 µM carvacrol alone, 24 h
# From the text: as §1, §2
# TRPA1 = target: T1, TRPA1 (Homo sapiens, UniProt O75762); conditions: read-out: IC50 (µM), channel inhibited TRPA1; cited from earlier work
# T1 construct: host or cells: HEK 293T (transient transfection)
# T1 sequence (O75762 whole entry, species assumed): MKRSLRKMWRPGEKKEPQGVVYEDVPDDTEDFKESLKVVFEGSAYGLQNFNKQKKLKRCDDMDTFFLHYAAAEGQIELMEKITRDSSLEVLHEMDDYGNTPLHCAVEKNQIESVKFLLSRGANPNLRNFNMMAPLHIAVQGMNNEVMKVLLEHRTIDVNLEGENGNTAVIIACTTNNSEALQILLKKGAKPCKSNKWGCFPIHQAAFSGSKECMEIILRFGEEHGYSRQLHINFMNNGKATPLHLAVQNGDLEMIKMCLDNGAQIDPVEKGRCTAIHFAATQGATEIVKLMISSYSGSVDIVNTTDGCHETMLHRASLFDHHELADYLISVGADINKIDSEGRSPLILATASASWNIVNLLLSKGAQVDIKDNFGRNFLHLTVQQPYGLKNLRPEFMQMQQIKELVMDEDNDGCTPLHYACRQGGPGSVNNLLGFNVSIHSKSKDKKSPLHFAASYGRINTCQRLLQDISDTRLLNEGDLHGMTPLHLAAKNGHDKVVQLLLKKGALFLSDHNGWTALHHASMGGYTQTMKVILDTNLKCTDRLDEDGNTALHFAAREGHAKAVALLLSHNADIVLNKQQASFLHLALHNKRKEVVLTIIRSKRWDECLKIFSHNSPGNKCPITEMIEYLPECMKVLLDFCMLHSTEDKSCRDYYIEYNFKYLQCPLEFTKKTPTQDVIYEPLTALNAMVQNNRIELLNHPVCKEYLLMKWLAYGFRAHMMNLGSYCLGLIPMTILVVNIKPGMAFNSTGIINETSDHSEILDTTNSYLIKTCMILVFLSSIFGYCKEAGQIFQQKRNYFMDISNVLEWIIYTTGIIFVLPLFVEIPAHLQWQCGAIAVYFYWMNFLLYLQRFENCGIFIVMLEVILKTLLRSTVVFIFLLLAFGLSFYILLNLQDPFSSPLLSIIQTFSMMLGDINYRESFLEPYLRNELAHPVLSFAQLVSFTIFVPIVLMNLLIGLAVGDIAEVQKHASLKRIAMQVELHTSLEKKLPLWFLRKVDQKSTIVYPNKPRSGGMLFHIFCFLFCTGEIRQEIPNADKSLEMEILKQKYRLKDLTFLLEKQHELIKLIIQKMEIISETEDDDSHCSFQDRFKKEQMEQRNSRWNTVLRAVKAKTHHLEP
molecule,measurement,setting,value
COc1c(O)cc(O)c2c(=O)c3cccc(O)c3n(C)c12 [Citrusinine II],IC50,TRPV3,12.4 ± 1.86 µM
COc1ccc2ccc(=O)oc2c1CC=C(C)C [Coumarin osthole],IC50,TRPV3,37 ± 1.9 µM
O=C(/C=C/c1ccc(O)c(O)c1)O[C@@H]1CC(O)(C(=O)O)C[C@@H](OC(=O)/C=C/c2ccc(O)c(O)c2)C1O (stereo partly shown) [Isochlorogenic acid A],IC50,TRPV3,2.7 ± 1.3 µM
O=C(C=Cc1ccc(O)c(O)c1)OC1CC(O)(C(=O)O)CC(O)C1OC(=O)C=Cc1ccc(O)c(O)c1 (stereo not shown) [Isochlorogenic acid B],IC50,TRPV3,0.9 ± 0.3 µM
CCC=CC1CCC2(CC3CCC4C(C(=O)OCCCCCCCCCCCCCCCC(=O)N(CCCN)CCCCN)C5(CCCC(C)O5)NC(=[N+]34)N2)O1 (stereo not shown) [Monanchomycalin B],IC50,TRPV1,6.02 ± 0.36 µM
same,IC50,TRPV3,3.25 ± 0.6 µM
same,IC50,TRPV2,2.84 ± 1.01 µM
C[C@@H]1O[C@@H](O[C@@H]2[C@@H](O)[C@H](OCCc3ccc(O)c(O)c3)O[C@H](CO)[C@H]2OC(=O)/C=C/c2ccc(O)c(O)c2)[C@H](O)[C@H](O)[C@H]1O [Verbascoside],IC50,TRPV3,14.1 ± 3.3 µM
"Cc1ccc(C(C)C)cc1O [carvacrol, reference compound]","viability at 24 h, 300 µM",TRPV3 (WT),75.6%
same,Effect on IL-8 release,IL-8,significantly stimulated
same,Effect on IL-6 secretion,IL-6,slight increase
same,Effect on TNF-α levels,TNF-α,non-significant effect
Forsythoside B,IC50,TRPV3,6.7 ± 0.7 µM
Pulchranin A,IC50,TRPV1,27.5 ± 1.4 µM
same,IC50,TRPV3,71.8 ± 9.4 µM
same,IC50,TRPA1,174 ± 7.4 µM
Pulchranin C,IC50,TRPV1,183 ± 27 µM
same,IC50,TRPV3,> 200 µM
same,IC50,TRPA1,> 200 µM
